Assay results published in PubChem BioAssay AID588580 (Sanford-Burnham Center for Chemical Genomics, 2011).
The source made the active and inactive calls.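 How the source made its calls: active means mean EC50 of 20 µM or lower; inactive means the rest.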

These molecules were tested against CHO XBP1-luciferase reporter, UPR activation, luminescence (assay: activators of UPR IRE1-XBP1 adaptive arm, SAR follow-up, cell-based, luciferase luminescence, set 2 (AID 588580)).

| SMILES | EC50 |
| --- | --- |
| O=C(Nc1cccc(C(F)(F)F)c1)c1cc(-c2ccncc2)nc2ccccc12 | > 80 µM (inactive) |
| COc1cccc(NC(=O)c2cc(-c3ccncc3)nc3ccccc23)c1 | > 80 µM (inactive) |
| O=C(Nc1ccc(Br)c(C(F)(F)F)c1)c1cc(-c2ccncc2)nc2ccccc12 | > 80 µM (inactive) |
| O=C(Nc1cccc(Br)c1)c1cc(-c2ccncc2)nc2ccccc12 | > 80 µM (inactive) |
| O=C(Nc1cccc(F)c1)c1cc(-c2ccncc2)nc2ccccc12 | inactive |
| O=C(Nc1cccc(F)c1F)c1cc(-c2ccncc2)nc2ccccc12 | > 80 µM (inactive) |
| Cc1ccc(NC(=O)c2cc(-c3ccncc3)nc3ccccc23)cc1 | 13.4 µM |
| Cc1cc(Br)cc(NC(=O)c2cc(-c3ccncc3)nc3ccccc23)c1 | > 80 µM (inactive) |
| O=C(Nc1ccc(F)c(F)c1)c1cc(-c2ccncc2)nc2ccccc12 | inactive |
| O=C(Nc1cc(F)ccc1F)c1cc(-c2ccncc2)nc2ccccc12 | > 80 µM (inactive) |
| Cc1cc(NC(=O)c2cc(-c3ccncc3)nc3ccccc23)ccc1Cl | inactive |
| Cc1cc(NC(=O)c2cc(-c3ccccc3)nc3ccccc23)ccc1Br | > 80 µM (inactive) |
| Cc1cccc(NC(=O)c2cc(-c3ccncc3)nc3ccccc23)c1 | > 80 µM (inactive) |
| O=C(Nc1ccc(F)cc1)c1cc(-c2ccncc2)nc2ccccc12 | inactive |
| O=C(Nc1ccc(Cl)cc1)c1cc(-c2ccncc2)nc2ccccc12 | 8.42 µM |
| O=C(Nc1ccccc1Br)c1cc(-c2ccncc2)nc2ccccc12 | > 80 µM (inactive) |
| O=C(Nc1cccc(Cl)c1)c1cc(-c2ccncc2)nc2ccccc12 | > 80 µM (inactive) |
| O=C(Nc1cccc(F)c1Br)c1cc(-c2ccncc2)nc2ccccc12 | > 80 µM (inactive) |
| O=C(Nc1ccc(C(F)(F)F)cc1)c1cc(-c2ccncc2)nc2ccccc12 | 2.2 µM |
| Cc1cc(NC(=O)c2cc(-c3ccncc3)nc3ccccc23)ccc1F | > 80 µM (inactive) |
